Reference: patent US20210024482A1, “Novel Group of STAT3 Pathway Inhibitors and Cancer Stem Cell Pathway Inhibitors” (Sumitomo Dainippon Pharma Oncology, Inc., priority 2007, published 2021)
One block for each compound: values may come before it.

How the values were obtained:
CD44^low FaDu cells = test: MTT cell viability, CD44low FaDu cells; assay type: cell-based; settings: Homo sapiens, 48 h
SW480 Hoechst SP cells = test: MTT cell viability, SW480 Hoechst side population CSCs; assay type: cell-based; settings: for IC50: Homo sapiens, SW480 Hoechst SP, 48 h
Protocol: (§1) To identify and isolate side population (SP) and non-SP fractions, SW480 cells were removed from the culture dish with trypsin and EDTA, pelleted by centrifugation, washed with phosphate-buffered saline (PBS), and resuspended at 37° C. in Dulbecco's modified Eagle's medium (DMEM) containing 2% FBS and 1 mM HEPES. The cells were then labeled with Hoechst 33342 (Invitrogen) at a concentration of 5 μg/mL. The labeled cells were incubated for 120 minutes at 37° C., either alone or with 50 μM verapamil (Sigma-Aldrich, St. Louis). After staining, the cells were suspended in Hanks' balanced saline solution (HBSS; Invitrogen) containing 2% FBS and 1 mM HEPES, passed a through 40 μm mesh filter, and maintained at 4° C. until flow cytometry analysis. The Hoechst dye was excited at 350 nm, and its fluorescence was measured at two wavelengths using a 450 DF10 (450/20 nm band-pass filter) and a 675LP (675 nm long-pass edge filter) optical filter. The gating on forward and side scatter was not stringent, and only debris was excluded,
(§2) For 3-(4,5 dimethylthiazol-2-yl)-2,5-diphenyltetrazolium (MTT) (Sigma-Aldrich, St. Louis, Mo.) analysis, cells were plated in 96 well plates at 10,000 cells per well. 24 hours after plating, compound was added to cells at indicated doses. 22 hours following compound addition, MTT was added to each well (0.5 mg/ml, final concentration) and plates were incubated for an additional 2 hours at 37° C. Medium was then aspirated and the formazan product was solubilized in 100 μl of isopropyl alcohol. The absorbance of each well was measured at 570 nm using a microplate reader.
The IC50 of compound 401 against the Hoechst side population was accessed in MTT assays and was compared to the IC50 against the non-side population.
In addition, we tested the activities of several other compounds against cancer stem cells. Briefly, freshly isolated CSCs (SW480 Hoechst SP cells or CD44^high FaDu cells) were exposed to a dose range (30-0.117 μM) of compound for 48 h before examining cell viability by MTT assay. IC50s were estimated by plotting the percentage of surviving cells. As shown in Table 4 and Table 5, compounds of present invention can target cancer stem cells.

FaDu cells = test: MTT cell viability FaDu; assay type: cell-based; settings: Homo sapiens, Head and Neck, MTT 24 hours
Protocol: as §2
(§3) Cells plated in 96 well plates and treated with indicated compounds were subjected to MTT analysis at 24 hours following compound treatment to determine cell viability.

[1] = system: SW480 non-side population (NSP) cells; test: MTT cell viability, SW480 non-side population; assay type: cell-based; settings: Homo sapiens, 48 h
Protocol: as §1
For 3-(4,5 dimethylthiazol-2-yl)-2,5-diphenyltetrazolium (MTT) (Sigma-Aldrich, St. Louis, Mo.) analysis, cells were plated in 96 well plates at 10,000 cells per well. 24 hours after plating, compound was added to cells at indicated doses. […] The absorbance of each well was measured at 570 nm using a microplate reader. […]

CD44^high FaDu cells = test: MTT cell viability, CD44high FaDu CSCs; assay type: cell-based; settings: Homo sapiens, 48 h
Protocol: CD44^high cells were isolated by FACS according to the methods described in Ponti et al, with slight modification. Briefly, after trypsinization and recovery of cells for 30 minutes at 37° C. in growth media, cells were pelleted at 400×g and were resuspended in PBS with 2% FBS and 1 mM EDTA at 1×10^6 cells/mL. Cells were then incubated on ice with a 1:100 dilution of CD44-FITC (BD Biosicences, San Diego, Calif.) for 15 minutes. Alternatively, CD24-PE (BD Bioscences, San Diego, Calif.) (1:100) was utilized for negative selection. After washing three times, cells were resuspended at 2×10^6/mL and passed through a […] mesh before sorting.
as §2
In addition, we tested the activities of several other compounds against cancer stem cells. […]

Paca2 cells = test: MTT cell viability Paca2; assay type: cell-based; settings: PaCa-2; Paca2, Pancreas, MTT 24 hours
Protocol: as §2, §3

Stat3 [2] = test: Stat3 DNA binding assay (EMSA) with HeLa nuclear extracts; assay type: biochemical; settings: HeLa nuclear extract, FIG. 7A/7B
Protocol: Electrophoretic mobility shift assay (EMSA) was performed as described by the manufacturer (Li-Cor Biosciences, Lincoln, Nebr.). Briefly, nuclear extracts were made from HeLa cells using the NucBuster Protein Extraction Kit as described by the manufacturer (EMD Biosciences, San Diego, Calif.). 5 μg of nuclear extract was pre-incubated with the indicated dose of indicated compound for 30 minutes prior to a 15-minute incubation with the IR700-labeled consensus Stat3 oligonucleotide. Samples were then electrophoresed on a polyacrylamide gel and directly scanned using the Odyssey infrared imaging system (Li-Cor Biosciences). For the enzyme-linked immunosorbent assay (ELISA), 5 μg of nuclear extract was preincubated with indicated concentration of indicated compound for 30 minutes prior to the addition of biotinylated oligo (5′-Biotin-[…]-3′, SEQ ID NO. 1). Stat3-DNA complexes were then captured on streptavidin coated 96 well plates (Pierce, Rockford, Ill.). Bound complexes were then incubated with Stat3 polyclonal antibody (Santa Cruz Biotechnology, Santa Cruz, Calif.) followed by anti-rabbit HRP conjugated secondary antibody (GE Healthcare, Pittsburgh, Pa.). Bound antibody was then visualized by addition of TMB substrate (Pierce) and absorbance measured at 450 nm,
Nuclear extracts from HeLa cells, which contain constitutively activated Stat3 as detected by phoshporylation at the tyrosine 705 residue, were used to perform Stat3 EMSAs to monitor Stat3 DNA binding activity. Nuclear extracts were incubated with indicated compound prior to incubation with IR700-labeled Stat3 consensus oligonucleotide. Binding of Stat3 to the oligonucleotide was monitored by gel electrophoresis and detection using a LiCor Odyssey infrared scanner.

CD44^high CSCs = test: Sphere assay with CD44high CSCs; assay type: cell-based; settings: spheres grown 72 hours before challenge, FIGS. 10A and 10B
Protocol: A reliable method of measuring the self-renewal capacity of cell population if the ability to be cultured as spheres in the absence of serum or attachment. CD44^high FaDu or Hoechst side population cancer stem cells were cultured in ultra low attachment plates in cancer stem cell media (DMEM/F12, B27 Neurobasal supplement, 20 ng/ml EGF, 10 ng/ml FGF, 4 μg/ml insulin, and 0.4% BSA) to allow spheres formation. Typically, sphere formation was evaluated by microscopy after 10-14 days in culture and spheres with >50 cells were scored.
One of the hallmarks cancer stem cells is their ability to self-renew. A reliable method of measuring the self-renewal capacity of cell populations is the ability to be cultured as spheres in the absence of serum or attachment. To compare the ability of compound 401 to other targeted and chemotherapeutic agents, FACS-isolated CD44^high CSCs were grown as spheres for 72 hours before being challenged with a panel of therapeutic agents. […] Tarceva, Sutent, and Gleevec were added at approximately three times their reported therapeutic concentrations.

SW480 cells = test: Hoechst side population staining of SW480 cells; assay type: cell-based; settings: treatment before Hoechst staining, FIG. 8A
Protocol: as §1
To confirm that this side population is enriched with cancer stem cells, a control set of SW480 cells were first treated with Verapamil, an inhibitor of ABC transporters, before stained with Hoechst.

Stat3 [3] = test: Stat3-luciferase (Stat3-Luc) reporter assay, OSM-stimulated HeLa cells; assay type: cell-based; settings: FIG. 6
Protocol: HeLa Cells were co-transfected with Stat3-luciferase (Stat3-Luc) reporter vector (Panomics, Fremont, Calif.) and Renilla luciferase (Promega, Madison, Wis.) using Lipofectamine 2000 as described by the manufacturer (Invitrogen). Following transfection, cells were maintained in medium containing 0.5% FBS for 24 hours. Cells were then treated with the indicated compound for 30 minutes prior to the addition of 25 ng/ml oncostatin M (OSM) (R&D Systems, Minneapolis, Minn.) to the medium. 6 hours following OSM addition, cells were harvested and levels of firefly and renilla luciferase were measured using the Dual-Glo Luciferase Assay System as described by the manufacturer (Promega).
Compounds were tested for their ability to inhibit Stat3 transcription activation activity in cells using a Stat3-luciferase (Stat3-luc) reporter construct. Cells transfected with Stat3-luc were cultured in reduced serum medium prior to addition of indicated compound for 30 minutes. Cells were then stimulated with 25 ng/ml oncostatin M (OSM) for 6 hours followed by detection of Stat3-luc reporter activity. […] AG490, a known inhibitor of the Jak-Stat pathway, was included as a positive control for Stat3 inhibition.

IC50 (SW480 Hoechst SP cells): 380 nM | IC50 [1]: 340 nM
SMILES: C=C(OP(=O)(O)O)C1=CC2C(=O)c3ccccc3C(=O)C2O1 (stereo not drawn) [Compound 4011, phosphoric acid mono-[1-(4,9-dioxo-3a,4,9,9a-tetrahydro-naphtho[2,3-b]furan-2-yl)-vinyl] ester]
IC50 (CD44^low FaDu cells): 420 nM | IC50 (FaDu cells): 353 nM | IC50 (CD44^high FaDu cells): 270 nM | IC50 (Paca2 cells): 446 nM

SMILES: C=C(OP(=O)(OC)OC)C1=CC2C(=O)c3ccccc3C(=O)C2O1 (stereo not drawn) [Compound 4012, phosphoric acid 1-(4,9-dioxo-3a,4,9,9a-tetrahydro-naphtho[2,3-b]furan-2-yl)-vinyl ester dimethyl ester]
IC50 (CD44^low FaDu cells): 760 nM | IC50 (SW480 Hoechst SP cells): 570 nM | IC50 (FaDu cells): 1040 nM | IC50 [1]: 810 nM | IC50 (CD44^high FaDu cells): 1050 nM

inhibition of Stat3 DNA binding activity (Stat3 [2]): can inhibit Stat3's DNA binding activity
SMILES: CC(=O)c1cc2c(o1)C(=O)c1cc(F)ccc1C2=O [Compound 418, 2-Acetyl-7-Fluoro-naphtho[2,3-b]furan-4,9-dione]

SMILES: CC(=O)O[C@@]12CO[C@@H]1C[C@H](O)[C@@]1(C)C(=O)[C@H](O)C3=C(C)[C@@H](OC(=O)[C@H](O)[C@@H](NC(=O)OC(C)(C)C)c4ccccc4)C[C@@](O)([C@@H](OC(=O)c4ccccc4)[C@H]21)C3(C)C [docetaxel]
prevention of sphere proliferation (CD44^high CSCs): spheres were resistant

SMILES: COc1cccc2c1C(=O)c1c(O)c3c(c(O)c1C2=O)C[C@@](O)(C(=O)CO)C[C@@H]3O[C@H]1C[C@H](N)[C@H](O)[C@H](C)O1 [Doxorubicin, reference compound]
sensitivity of side population compared to non-side population (SW480 Hoechst SP cells; FIG. 8B): the side population is much more resistant than the non-side population | prevention of sphere proliferation (CD44^high CSCs): spheres were resistant

inhibition of Stat3 DNA binding activity (Stat3 [2]): can inhibit Stat3's DNA binding activity
SMILES: CC(=O)c1cc2c(o1)C(=O)c1cc(Cl)ccc1C2=O [Compound 416, 2-Acetyl-7-Chloro-naphtho[2,3-b]furan-4,9-dione]

SMILES: COc1ccc(CCN(C)CCCC(C#N)(c2ccc(OC)c(OC)c2)C(C)C)cc1OC (stereo not drawn) [Verapamil]
effect on Hoechst side population (SW480 cells): loss of the side population

SMILES: O=C(c1ccccc1)c1cc2cc3ccccc3cc2s1 [Compound 1001, reference compound]
inhibition of OSM-stimulated Stat3 reporter activity (Stat3 [3]): did not inhibit OSM-stimulated Stat3 reporter activity even at a much higher concentration
